Source: patent publication US20160129003A1, “Pharmaceutical Combinations” (Novartis AG, priority 2013, published 2016)
Read-outs that look alike come from different tables or passages of the source.

Assays:
[1] = system: primary human lung cancer LU1656 xenograft; assay: In-vivo antitumor activity, subcutaneous LU1656 xenograft, first and second phase (Example 3); conditions: for T-C (days) at 500 mm^3 / T/C (%) / Tumor Size (mm^3) at Day 50 Post Tumor Implantation / Tumor Size (mm^3) at Day 61 Post Tumor Implantation: p.o.; for Tumor Size (mm^3) at Day 50 Post Tumor Implantation / Tumor Size (mm^3) at Day 61 Post Tumor Implantation: Mean ± SEM
Procedure: The in-vivo antitumor activity […] of the phosphatidylinositol-3-kinase inhibitor compound COMPOUND B in combination with either the anaplastic lymphoma kinase inhibitor COMPOUND D or crizotinib and (b) of the phosphatidylinositol-3-kinase inhibitor compound COMPOUND C in combination with either the anaplastic lymphoma kinase inhibitor COMPOUND D or crizotinib is evaluated in the treatment of subcutaneous primary human lung cancer LU1656 xenograft models in nu/nu mice.
(§1) Experiments are performed with female Mus Musculus nu/nu mice (Vital River Laboratories, China) approximately 7-8 weeks of age and 19-24 g body weight at treatment start. All animals are housed in laminar flow rooms at constant temperature (approximately 20-26° C.) and humidity (approximately 40-70%) with 4 or 5 animals in each cage. All animals have free access to irradiation sterilized dry granule food and sterile drinking water.
Animals are divided into 9 groups.
COMPOUND B in form of its monohydrochloride salt (Novartis) is obtained as a powder and stored at −20° C. 99.1 mg of COMPOUND B monohydrochoride (equivalent to 91 mg of free base) is formulated in 6.5 ml of 1% Tween 80 and 6.5 ml 1% methylcellulose (M-0512). COMPOUND B is first sonicated in the 1% Tween 80 and then mixed with the 1% methylcellulose and then stirred for 1 hour and sonicated for 5 minutes to formulate a solution having a COMPOUND B concentration of 7 mg/ml. For this experiment, the COMPOUND B monohydrochloride salt is referred to as “COMPOUND B”.
COMPOUND C is obtained as a powder and stored at 4° C. A vehicle is formulated by dissolving 2 g of CMC sodium salt powder low density in 198 ml of sterile water, mixing using a magnetic beater and heating (about 50° C.), adding 1 ml Tween 80, adjusting the pH to 7.6 using NaOh/HCl, and completing the volume to 200 ml. 84 mg of COMPOUND C is suspended in 3.5 ml of this vehicle and stirred/vortexed until homogenous; another 3.5 ml of this vehicle is added and homogenized; and another 7 ml of this vehicle is added and homogenized. To reduce particle size, this solution is sonicated for 1 hour using a sonication probe while cooling in an ice bath. The solution is having a COMPOUND C concentration of 6 mg/ml.
(§2) COMPOUND D in the form of its salt (Novartis) is obtained as a powder and stored at −20° C. 388 mg of COMPOUND D salt (equivalents to 330 mg of free base) is suspended in 33 ml of 0.5% methylcellulose (M-0512) and 0.5% Tween, is sonicated and then is vortexed to formulate a solution having a COMPOUND D concentration of 10 mg/ml. Additionally, 11 ml of this 10 mg/ml concentration solution is diluted with 11 ml 0.5% methylcellulose and 0.5% Tween 80 and vortexted to form a second solution having a COMPOUND D concentration of 5 mg/ml. For this experiment, the COMPOUND D salt is referred to as “COMPOUND D”.
COMPOUND C is obtained as a powder and stored at 4° C. A vehicle is formulated by dissolving 2 g of CMC sodium salt powder low density in 198 ml of sterile water, mixing using a magnetic beater and heating (about 50° C.), adding 1 ml Tween 80, adjusting the pH to 7.6 using NaOh/HCl, and completing the volume to 200 ml.

[2] = system: primary human lung cancer LUF1656 xenograft; assay type: in vivo; conditions: PO, QD × 21 Days; for T/C (%): Day 21; for Tumor Size (mm^3) at Day 21 of Treatment: Mean ± SEM
Procedure: The in-vivo antitumor activity of the phosphatidylinositol-3-kinase inhibitor compound COMPOUND B in combination with either the anaplastic lymphoma kinase inhibitor COMPOUND D or crizotinib is evaluated in the treatment of subcutaneous primary human lung cancer LUF1656 xenograft models in nu/nu mice.
as §1, with “water. Animals are divided into groups of 10 animals per group.” for “water.”
COMPOUND B in form of its monohydrochloride salt (Novartis) is obtained as a powder and stored at −20° C. 323.3 mg of COMPOUND B monohydrochoride (equivalent to 294 mg of free base) is formulated in 21 ml of 1% Tween 80 and 21 ml 1% methylcellulose (M-0512). COMPOUND B is first sonicated in the 1% Tween 80 and then mixed with the 1% methylcellulose and then stirred for 1 hour and sonicated for 5 minutes to formulate a solution having a COMPOUND B concentration of 7 mg/ml. For this experiment, the COMPOUND B monohydrochloride salt is referred to as “COMPOUND B”.
as §2
Crizotinib is obtained as a powder and stored at −20° C. 220 mg of crizotinib is suspended in 22 ml 0.5% methylcellulose (MC) and sonicated to form a solution having a crizotinib concentration of 10 mg/ml. This solution can be stored at 4° C. for 1 week and protected from light.
Tumor fragments from stock mice inoculated with LUF1656 primary human lung cancer cells (Crown Bio, China) are harvested and used for inoculation into the nu/nu mice. Each mouse is inoculated subcutaneously at the right flank with one tumor fragment (2-3 mm in diameter) for tumor development. The treatments are started when mean tumor size reach approximately 135 mm^3. Animals are routinely monitored and body weight measured twice weekly. Death and observed clinical signs are recorded on the basis of the number of animals within each subset. Animals observed to be in a continuing deteriorating condition or for which the tumor size of individual animal exceeds 1/10 of the body weight are euthanized prior to death or before comatose.
Tumor size is measured twice weekly in two dimensions using a caliper and the volume is expressed in mm^3 using the formula: V=0.5 a×b^2, wherein a and b are the long and short diameters of the tumor respectively. The tumor size is then used for calculation of both T-C and T/C values. T-C is calculated with T as the time (days) required for the mean tumor size of the treatment group to reach a predetermined size (e.g., 400 mm^3) and C is the time (in days) for the mean tumor size of the control group to reach the same size. T/C value (in percent is an indication of the anti-tumor effectiveness; T and C are the mean volume of the treated and control groups, respectively, on a given day.
Summary statistics are provided for the tumor volume of each group at each time point.

[3] = first phase, Group 4: COMPOUND C 30 mg/kg, QD × 35
[4] = second phase, Group 9: Crizotinib 50 mg/kg, QD × 40
[5] = first phase, Group 3: COMPOUND D 50 mg/kg, QD × 40
[6] = second phase, Group 8: COMPOUND D 25 mg/kg, QD × 40

In the case of Cc1nc(NC(=O)N2CCC[C@H]2C(N)=O)sc1-c1ccnc(C(C)(C)C(F)(F)F)c1 [COMPOUND C, (S)-Pyrrolidine-1,2-dicarboxylic acid 2-amide 1-({4-methyl-5-[2-(2,2,2-trifluoro-1,1-dimethyl-ethyl)-pyridin-4-yl]-thiazol-2-yl}-amide)], the “antitumor activity against the LU1656 xenograft model (summary)” value (shortened to “antitumor activity … (summary)”) ([1]; COMPOUND C at 30 mg/kg as a single agent) is reported as “significant antitumor activity”, the “T-C (days) at 500 mm^3” value [1, 3] is reported as 11 days and the “T/C (%)” value ([1]; first phase, Group 4: COMPOUND C 30 mg/kg, QD × 35, Day 50) is reported as 36.0%. The “Tumor Size (mm^3) at Day 50 Post Tumor Implantation” value [1, 3] was 752.5 mm^3.
For Nc1cc(C(F)(F)F)c(-c2cc(N3CCOCC3)nc(N3CCOCC3)n2)cn1 [COMPOUND B, 5-(2,6-di-morpholin-4-yl-pyrimidin-4-yl)-4-trifluoromethyl-pyridin-2-ylamine], the “T/C (%)” value ([2]; Group 3: COMPOUND B 35 mg/kg) was 30.1% and the “Tumor Size (mm^3) at Day 21 of Treatment” value ([2]; Group 3: COMPOUND B 35 mg/kg) was 365.4 mm^3.
In the case of C[C@@H](Oc1cc(-c2cnn(C3CCNCC3)c2)cnc1N)c1c(Cl)ccc(F)c1Cl [Crizotinib, reference compound], the “T-C (days) at 400 mm^3” value ([2]; Group 6: Crizotinib 50 mg/kg) is reported as 7 days, the “T/C (%)” value ([2]; Group 6: Crizotinib 50 mg/kg) is reported as 37.1% and the “Tumor Size (mm^3) at Day 21 of Treatment” value ([2]; Group 6: Crizotinib 50 mg/kg, from 9 animals' data (one outlier removed)) is reported as 450.8 ± mm^3. The “T-C (days) at 500 mm^3” value [1, 4] was 14 days, the “T/C (%)” value ([1]; second phase, Group 9: Crizotinib 50 mg/kg, QD × 40, Day 61) was 24.7% and the “Tumor Size (mm^3) at Day 61 Post Tumor Implantation” value [1, 4] was 520.4 mm^3. The “antitumor activity compared with vehicle control” value ([1]; second phase, Crizotinib 50 mg/kg, PO, QD×40, Day 47 to Day 61 after tumor implantation, p<0.01 or p<0.001 at different days) was “significant antitumor activity”.
In the case of Cc1cc(Nc2ncc(Cl)c(Nc3ccccc3S(=O)(=O)C(C)C)n2)c(OC(C)C)cc1C1CCNCC1 [COMPOUND D, 5-Chloro-N2-(2-isopropoxy-5-methyl-4-piperidin-4-yl-phenyl)-N4-[2-(propane-2-sulfonyl)-phenyl]-pyrimidine-2,4-diamine], the “T/C (%)” value ([2]; Group 7: COMPOUND D 25 mg/kg) is reported as 16.1%, the “Tumor Size (mm^3) at Day 21 of Treatment” value ([2]; Group 7: COMPOUND D 25 mg/kg) is reported as 194.9 mm^3 and the “T/C (%)” value ([2]; Group 8: COMPOUND D 50 mg/kg) is reported as 17.6%. The “Tumor Size (mm^3) at Day 21 of Treatment” value ([2]; Group 8: COMPOUND D 50 mg/kg) was 213.6 mm^3, the “antitumor activity … (summary)” value ([1]; COMPOUND D at 25 mg/kg as a single agent) was “significant antitumor activity” and the “antitumor activity … (summary)” value ([1]; COMPOUND D at 50 mg/kg as a single agent) was “significant antitumor activity”. For the same compound, the “T-C (days) at 500 mm^3” value [1, 5] was 40 days, the “T/C (%)” value ([1]; first phase, Group 3: COMPOUND D 50 mg/kg, QD × 40, Day 50) was 10.4% and the “Tumor Size (mm^3) at Day 50 Post Tumor Implantation” value [1, 5] was 218.2 mm^3. For the same compound, the “T-C (days) at 500 mm^3” value [1, 6] was 34 days, the “T/C (%)” value ([1]; second phase, Group 8: COMPOUND D 25 mg/kg, QD × 40, Day 61) was 14.6% and the “Tumor Size (mm^3) at Day 61 Post Tumor Implantation” value [1, 6] was 307.4 mm^3. For the same compound, the “antitumor activity compared to Crizotinib (50 mg/kg) monotherapy” value ([1]; second phase, COMPOUND D 25 mg/kg monotherapy, Day 64 to Day 82, p<0.05 or p<0.01 at different days) was “significantly improved”.
